Results taken from ChEMBL document CHEMBL5233201, “Progress in mechanistically novel treatments for schizophrenia” (RSC Med Chem, 2021).

Biological target: High affinity cGMP-specific 3',5'-cyclic phosphodiesterase 9A (Homo sapiens, UniProt O76083)
Experiment: Inhibition of human PDE9A expressed in Escherichia coli DH10 by scintillation proximity assay

Sequence of High affinity cGMP-specific 3',5'-cyclic phosphodiesterase 9A (O76083 whole entry): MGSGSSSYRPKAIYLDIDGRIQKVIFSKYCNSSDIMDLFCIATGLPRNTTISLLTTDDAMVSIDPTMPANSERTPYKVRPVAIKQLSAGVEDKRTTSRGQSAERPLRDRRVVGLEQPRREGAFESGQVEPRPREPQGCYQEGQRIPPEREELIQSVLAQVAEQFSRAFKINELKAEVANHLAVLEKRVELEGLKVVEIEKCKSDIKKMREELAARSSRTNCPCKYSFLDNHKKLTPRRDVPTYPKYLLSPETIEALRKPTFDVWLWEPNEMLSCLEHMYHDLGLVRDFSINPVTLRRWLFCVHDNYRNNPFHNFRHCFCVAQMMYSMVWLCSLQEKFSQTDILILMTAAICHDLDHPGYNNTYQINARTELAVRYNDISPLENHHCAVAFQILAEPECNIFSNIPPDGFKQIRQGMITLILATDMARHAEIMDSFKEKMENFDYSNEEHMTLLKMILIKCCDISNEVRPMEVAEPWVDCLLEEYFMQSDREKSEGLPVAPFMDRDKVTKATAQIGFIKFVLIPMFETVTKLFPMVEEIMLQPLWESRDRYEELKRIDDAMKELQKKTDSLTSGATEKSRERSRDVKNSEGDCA

IC50: 65 nM
Structure (SMILES): O=c1[nH]c(Cc2ccccn2)nc2c1cnn2C1CCOCC1 [OSORESNONTRINE]
